From article PMC5554537 (Frontiers in Pharmacology, 2017)
Values joined by “and” are separate entries in the source; they are usually repeats but may differ in a detail not shown here. Equal values may be shown once. Read-outs that look alike come from different tables or passages of the source.

Assays:
[1] = Plasma, liver and brain PK after i.p. dosing with M14; format: in vivo; details: i.p. M14 135 mg/kg; for half-life: read-out: Terminal T1/2
Protocol: Concentration-time data were analyzed by non-compartmental analysis using Phoenix WinNonlin (ver 6.4, Build 6.4.0768 Pharsight, United States); all AUC values were extrapolated to infinity using the linear trapezoidal rule. A compartmental model for plasma PK after dosing with SN30000 or M14 was fitted using Phoenix NLME v1.3 with random effects on the metabolite volumes of distribution, and temperature effects based on the observed body temperature at the last measurement time. Temperature effects were added or removed until there was no significant change in the log likelihood. Model fits were further assessed by visual inspection of the residuals and predicted PK.

[2] = i.p. SN30000 186 mg/kg
Protocol: (§1) M18 was quantified by absorbance detection with reference to an external standard calibration curve.
Concentration-time data were analyzed by non-compartmental analysis using Phoenix WinNonlin (ver 6.4, Build 6.4.0768 Pharsight, United States); all AUC values were extrapolated to infinity using the linear trapezoidal rule.
SN30000, M14 and M13 were quantified by LC-MS/MS using stable isotope internal standards, while M18 was quantified by absorbance detection using external standard calibration curves.

in vivo = details: NIH-III nude, mouse
Protocol: SN30000, M14 and M18 dosing solutions were prepared fresh in normal saline, filtered through 0.45 μm Acrodisc filters (Pall Life Sciences, Port Washington, NY, United States), protected from light in amber vials, and used within 3 h. Doses are expressed as mg of free base equivalent for SN30000 and M14, and free acid in the case of M18. […] Blood samples were collected from mice at various times by cardiac puncture, seconds after cervical dislocation, into ice-cold tubes containing K2EDTA. These were placed on ice immediately after collection and centrifuged (3,000 g, 3 min) within 10 min to harvest plasma. Plasma and tissues were rapidly frozen in liquid nitrogen before storage at -80°C for subsequent bioanalysis.
as §1
Concentration-time data were analyzed by non-compartmental analysis using Phoenix WinNonlin (ver 6.4, Build 6.4.0768 Pharsight, United States); all AUC values were extrapolated to infinity using the linear trapezoidal rule. […] Model fits were further assessed by visual inspection of the residuals and predicted PK.

HCT116 cells = assay: Antiproliferative potency, 4 h exposure, sulforhodamine B; format: cell-based, human; details: Homo sapiens, HCT-116, 4 h, HCT116, 4 h exposure
Protocol: Antiproliferative potency of SN30000 and its major metabolites following 4 h exposure of HCT116 cells under aerobic or anoxic conditions. […]
a HCT116 cells, originally from ATCC, were authenticated by short tandem repeat profiling and confir med mycoplasma-free by PCR/ELISA assay . Cells were passaged in Alpha MEM with 5% foetal bovine serum without antibiotics. In vitro cytotoxicity of SN30000 and metabolites was measured as the inhibition of cell proliferation as described previously (Gu et al., 2009). Briefly, cells were exposed to compounds for 4 h under aerobic (20% O2) or anoxic (Bactron anaerobic chamber) conditions and then grown in an aerobic 5% CO 2 incubator for 5 d before staining with sulforhodamine B. IC50 values were deter mined by interpolation (nonlinear regression to the standard Hill equation) as the drug concentration reducing staining to 50% of controls on the same plate. b Values are mean ± SEM for the numb er of independent experiments shown in parentheses.

[3] = target: T1, mouse brain acetylcholinesterase (Mus musculus, UniProt P21836); assay: biochemical; details: mouse brain homogenate, 37°C
T1 construct: from tissue; host or cells: mouse brain homogenate
T1 sequence (P21836 32-614): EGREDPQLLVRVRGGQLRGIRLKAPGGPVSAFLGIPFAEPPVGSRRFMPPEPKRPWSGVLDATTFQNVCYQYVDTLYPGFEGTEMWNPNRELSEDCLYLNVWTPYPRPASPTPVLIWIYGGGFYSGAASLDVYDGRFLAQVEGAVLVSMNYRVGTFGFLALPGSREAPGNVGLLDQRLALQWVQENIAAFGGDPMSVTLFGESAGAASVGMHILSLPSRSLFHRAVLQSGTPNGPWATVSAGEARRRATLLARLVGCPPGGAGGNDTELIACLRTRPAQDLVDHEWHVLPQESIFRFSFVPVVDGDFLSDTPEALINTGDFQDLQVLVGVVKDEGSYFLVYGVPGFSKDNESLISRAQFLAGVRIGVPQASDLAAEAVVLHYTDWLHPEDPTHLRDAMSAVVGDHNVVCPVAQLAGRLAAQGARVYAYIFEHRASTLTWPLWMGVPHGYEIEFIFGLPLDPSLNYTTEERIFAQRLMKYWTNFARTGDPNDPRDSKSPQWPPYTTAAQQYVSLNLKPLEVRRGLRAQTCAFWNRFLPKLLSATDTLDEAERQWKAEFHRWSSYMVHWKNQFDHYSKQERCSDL
Protocol: TABLE 10: Inhibition of mouse brain acetylcholinesterase activitya by SN30000 and related compounds […]
aThe acetylcholinesterase inhibition assay is based on Obregon et al., 2005. Mouse brain homogenate was prepared in potassium phosphate buffer (100 mM, pH 7.4), which was pre-incubated with dithiobisnitrobenzoate (final concentration 1 mM) at 37°C for 10 min. After adding acetylthiocholine (final concentration 0.6 mM), the formation of 5-thio-2-nitrobenzoate was measured by monitoring absorbance (Spectramax- M2 spectrophotometer) at 412 nm every 30 s for 10 min. Negative controls (DMSO or saline) and positive control […]
IC50 values are based on 3-4 deter minations per compound.

[4] = Plasma protein binding by equilibrium dialysis; format: in vitro ADME; details: NIH-III mouse plasma, 37°C, 6 h
Protocol: TABLE 11: Protein binding of SN30000, M14 and M18 at the indicated concentrations in NIH-III mouse plasma, measured by equilibrium dialysisa.
(µM) Percent Protein Bound (Mean ± SD)b […]
a Protein binding was evaluated by equilibrium dialysis using a high throughput plate with 12-14KDa dialysis membrane (HTDialysis, Gales Ferry, CT) as described by Banker et al., 2003, with modification. Briefly, 100 µL samples of plasma containing SN30000 or metabolites (M14 and M18) were dialysed against 100 µL PBS (pH 7.4) in an incubator (Innova-42, New Brunswick Scientific, US ) at 37°C with shaking at 80 rpm for 6 h. To achieve matrix match, 10 µL of blank plasma was added to 90 µL of the PBS sample and 90 µL of PBS was added to 10 µL of the plasma sample. Proteins were precipitated with 3 vol of ice-cold MeCN, the centrifuged supernatants were mixed with 2 vol 45 mM ammonium formate buffer pH 4.5, and 50 µL samples were analysed by HPLC with absorbance […]
bValues are mean and SD for triplicate samples.

[5] = HT29 tumour, tumour-bearing mice
[6] = liver, HT29 tumour-bearing mice
[7] = plasma, HT29 tumour-bearing mice
[8] = plasma, non-tumour-bearing mice

SMILES | AUC ([1]; brain) | AUC ([1]; liver) | AUC ([1]; plasma) | Concentrations in brain compared with plasma [2] | AUC (extrapolated to infinity) [2, 5] | Cmax [2, 5] | AUC (extrapolated to infinity) ([2]; brain, non-tumour-bearing mice) | Cmax ([2]; brain, non-tumour-bearing mice) | AUC (extrapolated to infinity) [2, 6] | Cmax [2, 6] | AUC (extrapolated to infinity) ([2]; liver, non-tumour-bearing mice) | Cmax ([2]; liver, non-tumour-bearing mice) | AUC (extrapolated to infinity) [2, 7] | AUC (extrapolated to infinity) [2, 8] | IC50 [3] | Percent Protein Bound (Mean ± SD) ([4]; 100 µM) | AUC (in vivo; in vivo, iv, 1.86 mg/kg) | half-life (in vivo; in vivo, iv, 1.86 mg/kg) | AUC (in vivo; in vivo, iv, 18.6 mg/kg) | half-life (in vivo; in vivo, iv, 18.6 mg/kg) | further results
c1c2c(cc3nc(CCCN4CCOCC4)nnc13)CCC2 [M13] | 5.3 µmol·h/kg | 14.9 µmol·h/kg | 1.79 µmol·h/kg | higher in brain than plasma | 57.7 µmol·h/kg | 15.5 ± 2.2 µmol/kg | 46.7 µmol·h/kg | 52.8 ± 4.1 µmol/kg | 158 µmol·h/kg | 155.4 ± 8.4 µmol/kg | 158 µmol·h/kg | 178.7 ± 8.1 µmol/kg | 14. 9 µmol. hr/kg | 13.0 µmol·h/kg | – | – | – | – | – | – | half-life ([1]; NIH-III nude, mouse, ip, brain): 26 min; half-life ([1]; NIH-III nude, mouse, ip, liver): 32.7 min; Cmax ([1]; NIH-III nude, mouse, ip, plasma, read-out: Cmax): 4 ± 0.63 µM; half-life ([1]; NIH-III nude, mouse, ip, plasma): 40 min; Cmax ([1]; brain): 11.0 ± 1.6 µmol/kg; Cmax ([1]; liver): 34.1 ± 5.4 µmol/kg; AUC (in vivo; plasma, iv, 1.86 mg/kg): 0.0047 µM·h; half-life (in vivo; plasma, iv, 1.86 mg/kg): 27.7 min; AUC (in vivo; plasma, iv, 18.6 mg/kg): 0.146 µM·h; half-life (in vivo; plasma, iv, 18.6 mg/kg): 47.1 min; AUC (in vivo; plasma, iv, 78.3 mg/kg): 3.34 µM·h; half-life (in vivo; plasma, iv, 78.3 mg/kg): 38.9 min
[O-][n+]1nc(CCCN2CCOCC2)nc2cc3c(cc21)CCC3 [M14] | 108.3 µmol·h/kg | 131.1 µmol·h/kg | 36.6 µmol·h/kg | higher in brain than plasma | 136 µmol·h/kg | 46.0 ± 3.9 µmol/kg | 126 µmol·h/kg | 162 ± 0 µmol/kg | 305 µmol·h/kg | 371 ± 26 µmol/kg | 350 µmol·h/kg | 469 ± 27 µmol/kg | 27. 6 µmol. hr/kg | 26.4 µmol·h/kg | 58.3 µM and 58 µM | 65.81 ± 0.02% | 0.042 µM·h | 12.3 min | 0.6 µM·h | 28.5 min | Cmax ([1]; NIH-III nude, mouse, in vivo, ip, 135 mg/kg, brain, read-out: Cmax): 260 ± 29 µM; half-life ([1]; NIH-III nude, mouse, in vivo, ip, 135 mg/kg, brain): 20.1 min; Cmax ([1]; NIH-III nude, mouse, in vivo, ip, 135 mg/kg, liver, read-out: Cmax): 319 ± 46.1 µM; half-life ([1]; NIH-III nude, mouse, in vivo, ip, 135 mg/kg, liver): 25.1 min; Cmax ([1]; NIH-III nude, mouse, in vivo, ip, 135 mg/kg, plasma, read-out: Cmax): 95.6 ± 9.8 µM; half-life ([1]; NIH-III nude, mouse, in vivo, ip, 135 mg/kg, plasma): 30.8 min; IC50 (HCT116 cells; aerobic (20% O2), read-out: IC50): 600 ± 60 µM; IC50 (HCT116 cells; anoxic, read-out: IC50): 900 ± 100 µM; AUC (in vivo; in vivo, iv, 78.3 mg/kg): 11.6 µM·h; half-life (in vivo; in vivo, iv, 78.3 mg/kg): 31.5 min
[O-][n+]1nc(CCCN2CCOCC2)[n+]([O-])c2cc3c(cc21)CCC3 [SN30000, 3-(3-Morpholinopropyl)-7,8-dihydro-6H-indeno[5,6-e][1,2,4]triazine 1,4-dioxide] | – | – | – | – | 111 µmol·h/kg | 69.9 ± 12.1 µmol/kg | 158 µmol·h/kg | 217 ± 12 µmol/kg | 164 µmol·h/kg | 172 ± 8 µmol/kg | 147 µmol·h/kg | 164 ± 38 µmol/kg | 159 µmol·h/kg | 156 µmol·h/kg | 131 µM | 26.68 ± 0.04% | 0.53 µM·h | 8.03 min | 8.1 µM·h | 27.6 min | IC50 (HCT116 cells; aerobic (20% O2)): 148 ± 20 µM; IC50 (HCT116 cells; anoxic): 1.7 ± 0.4 µM; Percent Protein Bound (Mean ± SD) ([4]; 10 µM): 21.93 ± 0.17%; clearance (in vivo; in vivo, 78 mg/kg): 84 mL/min/kg; clearance (in vivo; in vivo, iv): 83.3 to 167 mL/min/kg; Cmax (in vivo; in vivo, iv, 1.86 mg/kg): 1.86 ± 0.13 µM; Vd (in vivo; in vivo, iv, 1.86 mg/kg): 1.52 L/kg; clearance (in vivo; in vivo, iv, 1.86 mg/kg): 177 mL/min/kg; Cmax (in vivo; in vivo, iv, 18.6 mg/kg): 25.2 ± 0.27 µM; Vd (in vivo; in vivo, iv, 18.6 mg/kg): 1.29 L/kg; clearance (in vivo; in vivo, iv, 18.6 mg/kg): 116 mL/min/kg; AUC (in vivo; in vivo, iv, 78.3 mg/kg): 47 µM·h; Cmax (in vivo; in vivo, iv, 78.3 mg/kg): 81.9 ± 2.71 µM; Vd (in vivo; in vivo, iv, 78.3 mg/kg): 2.24 L/kg; clearance (in vivo; in vivo, iv, 78.3 mg/kg): 84 mL/min/kg; half-life (in vivo; in vivo, iv, 78.3 mg/kg): 23.9 min
